Where a name gives a salt, the structure may show the parent alone. Read-outs that look alike come from different tables or passages of the source. Residues, ends and D or L forms follow the SMILES beside them.
Columns and labels:
[1] = amino group (primary in aspartame, secondary in neotame); cited from earlier work
[2] = Dissolution in water (time to complete dissolution); format: physicochemical
Protocol: N-[N-(3,3-dimethylbutyl)-L-α-aspartyl]-L-phenylalanine 1-methyl ester (25.0 g) was slurried in 150 ml of water. To the stirred slurry was slowly added concentrated hydrochloric acid (5.5 ml, 0.0661 mol). After approximately 10 minutes all the solid had dissolved. The clear solution was then freeze dried. […] Yield: 27.34 g white solid (99.7%). The hydrochloride salt (1 g) dissolved in water (100 ml) in 70 seconds. 1H NMR (CD3 CN) δ 0.89 (s, 9H), 1.64 (m, 2H), 3.01 (m, 6H), 3.68 (s, 3H), 4.16 (t, 1H), 4.67 (m, 1H), 7.26 (m, 5H), 8.27 (d, 1H). Anal. Calcd for C20 H31 ClN2 O5.H2 O: C, 55.48; H, 7.69; N, 6.47; Cl, 8.19. Found: C, 55.95; H, 7.59; N, 6.55; Cl, 8.35.
N-[N-(3,3-dimethylbutyl)-L-α-aspartyl]-L-phenylalanine 1-methyl ester (10.0 g) was slurried in 100 ml of water. An equimolar amount of 85% phosphoric acid solution was added. After all the solid dissolved, the solution was freeze dried. […] Yield 12.33 g white solid (98.0%). The phosphate salt (0.1 g) dissolved in water (100 ml) in less than 30 seconds (visual observation) and about 90 seconds by spectrophotometric analysis. 1H NMR (CD3 CN) δ 0.89 (s, 9H), 1.55 (m, 2H), 2.84 (m, 5H), 3.19 (m, 1H), 3.67 (s, 3H), 4.06 (t, 1H), 4.70 (m, 1H), 7.27 (m, 5H), 8.03 (d, 1H). Anal. Calcd for C20 H33 N2 O9 P.H2 O: C, 48.58; H, 7.15; N, 5.67; P, 6.26. Found: C, 48.15: H, 7.08; N, 5.60; P, 6.57.
N-[N-(3,3-dimethylbutyl)-L-α-aspartyl]-L-phenylalanine 1-methyl ester (25.0 g) was slurried in 100 ml of water and concentrated sulfuric acid (3.67 ml) was added slowly. After several minutes of stirring some material remained undissolved. Therefore, 75 ml of acetone was added. The resulting clear solution was stirred for 30 minutes, then the acetone was removed under reduced pressure on a rotary evaporator. The contents of the flask remained a clear solution. […] Yield: 30.04 g (95%). The sulfate salt (0.1 g) dissolved in water (100 ml) in less than 20 seconds (visual observation). 1H NMR (CD3 CN) δ 0.89 (s,9H), 1.57 (m, 2H), 2.91 (m, 5H), 3.20 (m, 1H), 3.68 (s, 3H), 4.15 (t, 1H), 4.72 (m, 1H), 7.27 (m, 5H), 7.68 (d, 1H). Anal. Calcd for C20 H32 N2 O9 S.H2 O: C, 48.56; H, 6.94; N, 5.66; S, 6.48. Found C, 48.93; H, 7.02; N, 5.78; S, 6.50.
N-[N-(3,3-dimethylbutyl)-L-α-aspartyl]-L-phenylalanine 1-methyl ester (5.00 g) was dissolved in 75 ml of acetone. Citric acid (2.53 g) was dissolved in 50 ml of water, and the acetone solution was added. This formed a clear, colorless solution that was stirred for 1 hour. The acetone was evaporated under reduced pressure. The resulting slurry was freeze dried to obtain 7.5 g of a white solid. The citrate salt (0.1 g) dissolved in water (100 ml) in 90 seconds (visual observation). δ (CD3 CN) 0.89 (s, 9H), 1.53 (m, 2H), 2.83 (m, 10H), 3.20 (m, 1H), 3.67 (s, 3H), 4.04 (t, 1H), 4.21 (m, 1H), 7.27 (m, 5H), 7.79 (d, 1H). Anal. Calcd for C26 H38 N2 O12.H2 O: C, 53.05; H, 6.86; N, 4.76. Found: C, 53.10; H, 6.88; N, 4.41.
N-[N-(3,3-dimethylbutyl) -L-α-aspartyl]-L-phenylalanine 1-methyl ester (0.05-0.1 g) was dissolved in water (100 mL). The compound completely dissolved in 5-7 minutes (visual observation). The dissolution of 1.0 g of N-[N-(3,3-dimethylbutyl)-L-α-aspartyl]-L-phenylalanine 1-methyl ester in 100 mL of water required approximately 45 minutes.

[3] = Aqueous solubility compared to the starting material / water solubility; format: physicochemical; settings: starting material = neotame
[4] = cited from earlier work
[5] = on a weight basis, cited from earlier work
[6] = compared with aspartame; cited from earlier work
[7] = compared with aspartame, under some pH conditions; cited from earlier work
[8] = 0.1 g in water (100 ml), visual observation

COC(=O)[C@H](Cc1ccccc1)NC(=O)[C@@H](N)CC(=O)O [aspartame] (H-Asp-Phe-OMe)
pKa [1]: 7.7

COC(=O)[C@H](Cc1ccccc1)NC(=O)[C@H](CC(=O)O)NCCC(C)(C)C [hydrochloride salt, Hydrochloride Salt of N-[N-(3,3-dimethylbutyl)-L-α-aspartyl]-L-phenylalanine 1-methyl Ester]
dissolution time in water ([2]; 1 g in water (100 ml)): 70 s
aqueous solubility compared to the starting material [3]: greatly increased aqueous solubility compared to the starting material

COC(=O)[C@H](Cc1ccccc1)NC(=O)[C@H](CC(=O)O)NCCC(C)(C)C [citrate salt, Citrate Salt of N-[N-(3,3-dimethylbutyl)-L-α-aspartyl]-L-phenylalanine 1-methyl Ester]
dissolution time in water (visual observation) [2, 8]: 90 s

COC(=O)[C@H](Cc1ccccc1)NC(=O)[C@H](CC(=O)O)NCCC(C)(C)C [phosphate salt, Phosphate Salt of N-[N-(3,3-dimethylbutyl)-L-α-aspartyl]-L-phenylalanine 1-methyl Ester]
dissolution time in water by spectrophotometric analysis ([2]; 0.1 g in water (100 ml), spectrophotometric analysis): about 90 seconds
dissolution time in water (visual observation) [2, 8]: less than 30 seconds
aqueous solubility compared to the starting material [3]: greatly increased aqueous solubility compared to the starting material

COC(=O)[C@H](Cc1ccccc1)NC(=O)[C@H](CC(=O)O)NCCC(C)(C)C [sulfate salt, Sulfate Salt of N-[N-(3,3-dimethylbutyl)-L-α-aspartyl]-L-phenylalanine 1-methyl Ester]
dissolution time in water (visual observation) [2, 8]: less than 20 seconds
aqueous solubility compared to the starting material [3]: greater aqueous solubility compared to the starting material

COC(=O)[C@H](Cc1ccccc1)NC(=O)[C@H](CC(=O)O)NCCC(C)(C)C [N-[N-(3,3-dimethylbutyl)-L-α-aspartyl]-L-phenylalanine 1-methyl ester]
dissolution time in water, completely dissolved (visual observation) ([2]; 0.05-0.1 g in water (100 mL), visual observation): 5 to 7 min
dissolution time in water ([2]; 1.0 g in 100 mL of water): approximately 45 minutes
solubility in water ([4]; compared with aspartame): much lower solubility in water
solubility in water ([4]; in words, no comparator): sparingly soluble in water
pKa [1]: 8.1
sweetening potency relative to aspartame ([5]; times that of aspartame): at least 50 times
sweetening potency relative to sucrose ([5]; times that of sucrose): about 10,000 times
solubility in organic solvents [6]: much higher solubility in organic solvents than aspartame
stability [7]: higher stability than aspartame under some pH conditions

Reference: patent publication US6180156A, “Acid salts of N-[N-(3,3-dimethylbutyl)-L-α-aspartyl]-L-phenylalanine 1-methyl ester” (The NutraSweet Company, priority 1998, dated 2001)
